Experimental data as given in patent publication US10689394B2, “Thieno[2,3-b]pyridine derivative, quinoline derivative, and use thereof” (The University of Tokyo, priority 2016, dated 2020).

Test system: binding between 122 types of ALS-related mutant SOD1s and Derlin-1
Assay: Cell-based co-immunoprecipitation with 122 types of ALS-related mutant SOD1s
Set-up: species or system human
Conditions: co-immunoprecipitation at cell level, FIG. 2 to FIG. 9
Method: Transfection into the HEK293A cells was carried out using PEI-Max (Polyscience) at a ratio of 3 μL of PEI-Max to 1 μg of plasmid. DMEM was mixed with PEI-Max, and the mixture was then left at rest for 5 minutes. Thereafter, the reaction mixture was added to the plasmid DNA dissolved in DMEM, and the thus obtained mixture was further left at rest for 15 minutes. After seeding, the culture was carried out for 12 to 24 hours, and the resultant was then added to a culture medium of cells, in which the medium had been exchanged with DMEM supplemented only with 10% FBS.
pcDNA3.0-Derlin-1-HA, pcDNA3.0-Flag-SOD1 G93A, and 123 types of other mutants.
After the transfection on a 24-well plate, the cells were cultured for 12 hours or 24 hours, and the obtained cell culture was exchanged with 200 μL of medium. Thereafter, 1% DMSO or various types of compounds having each different concentration were added into the culture. Thirty-six hours or twenty-four hours later, the cells were incubated in the IP lysis buffer (300 μL/well) at 4° C. for 25 minutes, so that the cells were lysed. The cell lysate was centrifuged at 4° C. at 15000 rpm for 10 minutes, and a supernatant was then recovered. To this supernatant, Anti-Flag M2 affinity gel was added in a liquid amount of 20 μL, and they were allowed to react with each other by subjecting the obtained mixture to inversion mixing at 4° C. for 25 minutes. […]

SMILES: C=CCN(C(=O)c1sc2nc(-c3cccnc3)ccc2c1N)c1ccccc1 [Example 1, N-allyl-3-amino-N-phenyl-6-(3-pyridinyl)thieno[2,3-b]pyridine-2-carboxamide]
- inhibition of binding between multiple types of mutant SOD1s and Derlin-1: inhibits the binding between all of the mutant SOD s and Derlin-1
